Common to all, as to assay type: cell-based
Assay [1] deals with human lung cancer cells (H358). As to the kind of experiment: Cell death in lung cancer spheroids, PrestoBlue. The following applies: techniques of Example 1. The procedure: (§1) The respective cells were individually cultured in a growth medium prepared using RPMI-1640 medium containing 11.1 mM D-glucose with 10% fetal bovine serum, 10 mM HEPES, 2 mM L-glutamine, 1 mM sodium pyruvate, 0.05 mM 2-mercaptoethanol, and Antibiotic-Antimycotic. These cells were maintained in T75 tissue culture flasks in a humidified incubator at 37° C. and 5% CO2. The media were changed on a third day after cell plating, and the cells were passaged on day 5 by trypsinization.
(§2) Custom-made micromolds with 100 um diameter wells were loaded with the cells (U.S. Pat. No. 8,735,154, incorporated by reference herein). The media were changed every day by partial replacement. Cell aggregates were allowed to form in the micromolds for 72 hours and then were transferred to a 100 mm non-treated tissue culture dishes for 3 additional days. The spheroids were passed through 70 um and 100 μm cell strainers (#3431751 and #43152, Corning, Tewksbury, Mass.) and maintained in HEPES Balanced Salt Solution comprised of: 20 mM HEPES, 114 mM NaCl, 4.7 mM KCl, 1.2 mM KH2PO4, 1.16 mM MgSO4, 2.5 mM CaCl2, 25.5 mM NaHCO3 and 0.2% bovine serum albumin (fatty acid free), pH 7.2.
The lymphomas treatment methods used were identical to those described in Example 2 relative to the pediatric leukemia cells, whereas the lung cancer treatment method was the same as described in Example 1.

Assay [2] deals with human ovarian cancer cells (A1847). Description: Cell death in ovarian cancer spheroids, PrestoBlue. Conditions: techniques of Example 1. As to the method: as §1, §2
(§3) The cells were treated and tested as set forth in Example 1.

Assay [3] relates to human prostate cancer cells (22rv1). Description: Cell death in prostate cancer spheroids, PrestoBlue. Conditions: techniques of Example 1. As to the method:
as §1, §2, §3

In a further assay the test system is ovarian cancer cells. As to the kind of experiment: Synergism with doxorubicin on ovarian cancer spheroids. Conditions: low doses, up to 0.158 μM. The procedure:
In this test, the synergism of GZ17-6.02 with doxorubicin (a common chemotherapy drug) was tested on ovarian cancer cells. In this test, increasing doses of doxorubicin were administered to ovarian cancer spheroids and cell deaths were measured, as described in Example 1. The protocol involved testing doxorubicin alone at various dosages (FIG. 8, doxorubicin alone—closed circles), with comparative tests using the various dosages of doxorubicin in combination with either 0.2 mg/mL (FIG. 8 open circles) or 0.4 mg/mL (FIG. 8 closed triangles) GZ17-6.02. Additionally, the induced cell death results from use of 0.2 mg/mL GZ17-6.02 alone (FIG. 8, line A) and 0.4 mg/mL GZ17-6.02 alone (FIG. 8, line B) were determined.

In the case of `COc1cccc(C=O)c1O` [O-vanillin], the “anticancer effects (cell number versus increasing concentrations), compound alone” value in assay [1], in assay [2] and in assay [3] was “demonstrated anticancer effects” each time.
Take `COc1cccc2c1C(=O)c1c(O)c3c(c(O)c1C2=O)C[C@@](O)(C(=O)CO)C[C@@H]3O[C@H]1C[C@H](N)[C@H](O)[C@H](C)O1` [doxorubicin]: the “cell death, doxorubicin alone” value in the assay on ovarian cancer cells is listed as “ineffective”.
For the compound `COc1ccc2c3c([nH]c2c1)C(C)=NCC3` [harmaline], the “anticancer effects (cell number versus increasing concentrations), compound alone” value in assay [1], in assay [2] and in assay [3] was “demonstrated anticancer effects” in each case.
As for `CC1=NCCc2c1[nH]c1cc(O)ccc21.Cl` [harmalol hydrochloride], the “anticancer effects (cell number versus increasing concentrations), compound alone” value in assay [1], in assay [2] and in assay [3] was “demonstrated anticancer effects” throughout.
Consider `Cc1nccc2c1[nH]c1cc(O)ccc12.Cl` [harmole hydrochloride], for which the “anticancer effects (cell number versus increasing concentrations), compound alone” value in assay [1], in assay [2] and in assay [3] was “demonstrated anticancer effects” throughout.
With `COc1ccc(C(=O)O)cc1O` [isovanillic acid], the “anticancer effects (cell number versus increasing concentrations), compound alone” value in assay [1], in assay [2] and in assay [3] was “demonstrated anticancer effects” throughout.
For the compound `COc1ccc(CO)cc1O` [isovanillyl alcohol], the “anticancer effects (cell number versus increasing concentrations), compound alone” value in assay [1], in assay [2] and in assay [3] was “demonstrated anticancer effects” in each case.
Take `COc1ccc2c3c([nH]c2c1)[C@@H](C)NCC3` [tetrahydro-harmine]: the “anticancer effects (cell number versus increasing concentrations), compound alone” value in assay [1], in assay [2] and in assay [3] was “demonstrated anticancer effects” throughout.
For `COc1cc(C=O)ccc1O` [vanillin], the “anticancer effects (cell number versus increasing concentrations), compound alone” value in assay [1], in assay [2] and in assay [3] was “demonstrated anticancer effects” throughout.

Values taken from patent US20160106687A1, “HUMAN THERAPEUTIC AGENTS” (Life Plus, LLC, priority 2014, published 2016).
